Peptide text beside a SMILES is read from it. * marks the point of attachment. Cbz = O=C(OCc1ccccc1)*; CH2F = FC*
How the values were obtained:
mouse glioma cell lines = assay: Dose response cell viability, IKE with or without CMD; type: cell-based; conditions: 10 uM Ferrostatin-1
Description: (§1) A basis for the invention that depriving glioma cells of sulfur containing amino acids (cystine and methionine) will result in lower levels of glutathione (which normally protects cells from lipid peroxidation) and therefore would sensitize the glioma cells to ferroptosis inducing drugs. […] Both these effects were rescued by ferrostatin.

MG1 cells [1] = assay: Bodipy-C11 flow cytometry, IKE with or without CMD; type: cell-based, mouse; conditions: 10 uM Ferrostatin-1
Description: (§2) Adherent cells were lifted using TrypLE (ThermoFisher™ Scientific).
as §1

MG4 cells = assay: Bodipy-C11 flow cytometry, radiation plus CMD; type: cell-based, mouse; conditions: Ferrostatin-1
Description: as §2
Radiation is a known ferroptosis inducer. […] Treatment of both mouse glioma cells (MG1 and MG4) and human GBM cells (TS543) is shown.

MG1 cells [2] = assay: Live cell confocal microscopy of Bodipy-C11 lipid peroxidation; type: cell-based, mouse
Procedure: 1.3×10^5 MG1 cells were plated on poly-L-lysine coated 35 mm glass-bottom dishes (MatTek™ life sciences) for 24 hours. Cells were incubated for 30 minutes in basal media (DMEM (Gibco™ 11965092) with 0.5% FBS (Gibco™ 16000044), antibiotic-antimycotic (Thermo Scientific™ 15240096), N2 supplement (Thermo Fisher Scientific™, 17502-048), and 10 ng/ml each of recombinant human PDGF-AA (Peprotech, 100-13A) and FGFb (Peprotech™. 10018B50UG)) media containing 5 μM BODIPY-C11. Media were replaced with fresh basal media and cells were imaged on a Nikon™ A1RMP confocal microscope at 37° C. in a humidified chamber with 5% C02. Time-lapse images were acquired using a 40×/1.3 NA oil immersion objective and focus was maintained using the Perfect Focus™ System. Excitation was achieved using 488 nm and 561 nm laser illumination; emission of the oxidized and reduced forms of BODIPY-C11 was captured using a 525/50 and a 595/50 filter, respectively. At time 0, RSL3 (500 nM) or RSL3 (500 nM)+Ferrostatin (2 μM) were added and images were acquired every 30 seconds for a total of 30 minutes. Images were exported to ImageJ™ for analysis.

[3] = tested on: human diffuse astrocytoma slice culture; assay: H2DCFDA flow cytometry of human glioma slice cultures, IKE plus radiation; type: cell-based; conditions: 10 μM IKE, 0 or 2 Gy radiation for 24 hours
Description: To further understand the translational relevance of these findings to human glioma samples, an acute organotypic slice culture model was used. […] The tissue was placed on a Millicell™ cell culture insert in treatment media. This media comprised of DMEM+ Hams-F12 without cysteine or methionine (MyBioSource, MBS652871) or DMEM+ Hams-F12 with cysteine and methione to create the to varied conditions that would undergo radiation or IKE treatment.
Horizontal bars indicate H2DCFDA-positive cell populations.

MG3 cells = assay: 384-well dose-response to GPX4 inhibitors with or without CMD; type: cell-based, mouse; conditions: dose response assays, with or without 2 uM Ferrostatin-1
Procedure: (§3) Cell viability was assessed using the Cell-Titer^Glo™ luminescence assay. Murine glioma cells were plated in triplicate at a density of 6,000 cells per well in a 96-well plate (ThermoFisher Scientific™). Twenty-four hours after plating, media was removed and treatment media was added. Viability was assessed 24 hours after treatment. Human glioma cells were plated at a density of 2,000 cells per well. Cells were plated in normal media or cysteine/methionine deprived media. Twenty-four hours after plating, media was changed to begin drug treatment. Forty-eight hours after plating, luminescence was measured.
(§4) Averages across 3 independent experiments are reported. For experiments conducted in 384-well plates, mouse glioma cells were plated at a density of 1,600 cells per well and human glioma cells were plated at a density of 1,000 cells per well. The assays as described above were quantified using Cell-Titer Glo™ (Promega™) ATP based bioluminescence. To determine cell viability, a 50% Cell Titer Glo™ and 50% cell culture medium was added to each well and incubated at room temperature for 10 minutes. Luminescence was assessed on a Promega™ GloMax™ Microplate Reader.

MG1 cells [4] = assay: Dose-response of MG1 cells to RSL3 plus cell death inhibitors; type: cell-based, mouse; conditions: 5 uM ZVAD-FMK; 2 uM Nec-1s
Procedure: as §3, §4

[5] = tested on: human primary glioblastoma; assay: H2DCFDA flow cytometry of ex vivo organotypic slice cultures, RSL3 with or without CMD; type: cell-based; conditions: 100 nM RSL3 plus CMD
Procedure: Mice were sacrificed by cervical dislocation.
Slice cultures were dissociated in papain (9.5 mL DPBS, 500 μL papain, 1.67 μL 6 M NaOH, 2 mg L-cysteine, 100 μL DNAse) and incubated in a warm bath shaker at 37° C. for 30 minutes. After centrifugation at 400×g for 5 minutes, the papain was aspirated and slices were resuspended in ice cold PBS and triturated with glass tip Pasteur pipettes. This process was repeated one time and then the cell suspension was resuspended in a 30% sucrose solution and spun at 1000×g for 5 minutes. The cell suspension was resuspended in PBS and stained with Calcein Blue (final concentration 5 μM) and H2DCFDA (final concentration 10 μM), incubated in a water bath at 37° C. for 10 minutes. Suspensions were spun down at 500×g for 5 minutes and resuspended in PBS and taken for flow cytometric analysis on a LSRIII Fortessa™ machine. Cell and Slice culture suspensions were filtered in polystyrene flow tubes (Fisher Scientific™). Data were collected on an LSRIII Fortessa™ flow analyzer and analyzed using FlowJo™ v10.
The slices were treated with RSL3 and assayed via flow cytometry for levels of reactive oxygen species (ROS) using H2DCFDA.

glioma cell lines = assay: Cell viability dose-response to RSL3 (Cell-Titer Glo); type: cell-based, mouse, human
Procedure: as §3, §4
To test this, media was adapted for cell culture based on the previous ferroptosis permissive glioma culture methods. […]

## CCOC(=O)c1ccc(NC2CCCCC2)c(N)c1 [Ferrostatin-1]
Mouse glioma cell lines
  rescue of CMD enhanced IKE induced cell death: rescued
MG1 cells [1]
  rescue of CMD plus IKE lipid peroxidation: rescued
MG4 cells
  rescue of lipid peroxidation from radiation plus CMD: complete rescue
MG1 cells [2]; 500 nM RSL3 and 2 uM Ferrostatin-1
  effect on RSL3 induced lipid peroxidation: prevented this lipid peroxidation

## CC(C)Oc1ccc(C(=O)Cn2ccnc2)cc1-n1c(CN2CCN(C(=O)COc3ccc(Cl)cc3)CC2)nc2ccccc2c1=O [IKE, imidazole ketone erastin]
[3]
  H2DCFDA-positive cells, interaction with radiation: synergy of radiation with IKE treatment

## Cc1onc(C(=O)N2CCN(C(c3ccc(Cl)cc3)c3ccc(Cl)cc3)CC2)c1[N+](=O)[O-] [ML-210]
MG3 cells
  ferroptosis in combination with CMD: synergistic enhancement of ferroptosis with CMD

## CN1C(=O)NC(Cc2c[nH]c3c(Cl)cccc23)C1=O (stereo not shown) [Nec-1s]
MG1 cells [4]
  rescue of RSL3 mediated cell death: not rescuable

## COC(=O)c1ccc([C@@H]2c3[nH]c4ccccc4c3C[C@@H](C(=O)OC)N2C(=O)CCl)cc1 [RSL3]
[5]
  reactive oxygen species (ROS) levels, H2DCFDA: increased ROS to levels equivalent to a high dose of RSL3 (500 nM)
Glioma cell lines; dose response curves, dual treatment (FIG. 30)
  cell viability with CMD plus RSL3: stark difference in cell viability with dual treatment
Glioma cell lines; five cell lines assayed, 384-well dose-response
  sensitivity to ferroptosis by RSL3: baseline sensitivity to ferroptosis
MG3 cells
  ferroptosis in combination with CMD: synergistic enhancement of ferroptosis with CMD
MG1 cells [2]; 500 nM RSL3
  lipid peroxidation (Bodipy-C11 green fluorescence shift): induction of lipid peroxidation

## COC(=O)C[C@H](NC(=O)[C@H](C)NC(=O)[C@@H](NC(=O)OCc1ccccc1)C(C)C)C(=O)CF [ZVAD-FMK] (Cbz-Val-Ala-Asp(OMe)-CH2F)
MG1 cells [4]
  rescue of RSL3 mediated cell death: not rescuable
